Like-named read-outs stand apart in the source and are kept apart here.
Molecular target: T1, HCV NS5B genotype 1b (Hepatitis C virus genotype 1b, UniProt Q9WMX2)
T1 construct: The protein was expressed with a 21 amino acid C-terminal deletion to remove transmembrane domain; expressed in transfected cells; host or cells: Huh-7
Experiment: 3D-SCREEN assay (NS5B 3D-Screen platform, luciferase reporter gene)
Assay type: cell-based
Excerpt: cDNA encoding HCV NS5B genotype 1b, was cloned in frame with Gal4-DNA Binding Domain. The protein was expressed with a 21 amino acid C-terminal deletion to remove transmembrane domain. Expression of NS5BΔ21/Gal4 DBD fusion protein was under control of SV40 early promoter. 3D-Sensor peptide was cloned in frame with VP16 activation domain. Expression of 3D-Sensor/VP16 AD fusion protein was under control of CMV promoter. Expression of the firefly luciferase reporter gene was inducible by the [Target protein/conformation sensitive peptide/VP16AD] complex.
It is a single-target, cell based assay. Briefly, expression of a reporter gene depends on the interaction of a short peptide, thereafter named 3D-Sensor, and native conformation of the target protein. Whenever the conformation of the target protein is modified, interaction between 3D-sensor and target protein is disrupted and reporter gene is not expressed anymore. Conformation modifiers are identified by loss of expression of reporter gene. NS5B 3D-Screen platform was generated in Huh-7 cell lines by transient transfection of three expression vectors encoding respectively
(i) HCV NS5BΔ21/Gal4-DBD fusion protein
(ii) the 3D-sensor peptide I4/VP16 fusion protein
(iii) the firefly luciferase reporter gene
Huh-7 cells were dissociated the day before transfection and seeded in T175 flasks at a density of 10^7 cells in 30 ml culture medium. Equimolar ratios of vectors were transfected in cell according to optimized jetPEI transfection protocol (PolyPlus Transfection, Illkirch, France) and 10 μg total DNA/10^6 cells. Transfection was performed for 2 hours at 37° C. and 5% CO2 in a humidified atmosphere. After two hours cells were dissociated and seeded in 96 wells plates at a density of 25,000 cells per well and 90 μl culture medium. 10 μl of compounds to be tested were added 2 hours after seeding. Final concentration of DMSO was 1%. Cells were incubated in the presence of compounds for 24 hours after which expression of firefly luciferase reporter gene was quantified. Briefly, culture medium was removed and cells were lysed by addition of 100 μl of lysis buffer containing 125 mM Tris Phosphate ph 7.8, 10 mM EDTA, 5 mM DTT, 50% glycerol and 5% Triton. Plates were vortexed 10 min at 1300 rpm. Cell lysat was transferred in OpaqueWhite Assay 96 well Flat Bottom plates. 100 μl of luciferin solution 1× were added to each well. Luciferin solution contained 40 mM Tris Phosphate ph 7.8, 0.2 mM EDTA, 67 mM DTT, 2.14 mM MgCl2, 5.4 mM MgSO4, 4.7×10^−4 M luciferin, 5.3×10^−4 M ATP and 2.7×10^−4 M Acetyl co enzyme A. Luminescence was immediately measured with Berthold Microlumat Plus LB 96V luminometer with an integration of 0.5 sec. Inhibition was calculated using the formula: % inhibition=(1−(read/average max))*100. Average max=signal in absence of compound

[1] = EC50_3DS_NS5B, Table 1, 3D-SCREEN assay results, Huh-7 cells, 24 hours with compound, firefly luciferase reporter
[2] = EC50_3DS_NS5B, Table 2, titled Replicon assay results

Compound	EC50 [1] [µM]	EC50 [2] [µM]	also measured
5-[4-(1,1-difluoro-ethoxy)-phenyl]-3-hydroxy-4-(4-isopropyl-benzoyl)-1-(6-methyl-pyridazin-3-yl)-1,5-dihydro-pyrrol-2-one [Example 174]			EC50 (Table 2, titled Replicon assay results, read-out: EC50_3DS_NS5B): < 10 µM
CON=C(C1=C(O)C(=O)N(c2ccc(C)nn2)C1c1ccc(C(C)C)cc1)c1ccc(C)cc1 (mixture of isomers) [Example 53, 3-hydroxy-5-(4-isopropyl-phenyl)-4-(methoxyimino-p-tolyl-methyl)-1-(6-methyl-pyridazin-3-yl)-1,5-dihydro-pyrrol-2-one]	5		
Cc1ccc(C(=O)C2=C(O)C(=O)N(c3ccc(C#N)cn3)C2c2ccc(C(C)C)cc2)cc1 (stereo not shown) [Example 7, 6-[3-hydroxy-5-(4-isopropyl-phenyl)-4-(4-methyl-benzoyl)-2-oxo-2,5-dihydro-pyrrol-1-yl]-nicotinonitrile]	9		
Cc1ccc(C(=O)C2=C(O)C(=O)N(c3cccnn3)C2c2ccc(C(C)C)cc2)cc1 (stereo not shown) [Example 9, 3-hydroxy-5-(4-isopropyl-phenyl)-4-(4-methyl-benzoyl)-1-pyridazin-3-yl-1,5-dihydro-pyrrol-2-one]	7		
COc1ccc(C(=O)C2=C(O)C(=O)N(c3ccc(C)nn3)C2c2ccc(C(C)(C)C)cc2)cc1 (stereo not shown) [Example 10, 5-(4-tert-butyl-phenyl)-3-hydroxy-4-(4-methoxy-benzoyl)-1-(6-methyl-pyridazin-3-yl)-1,5-dihydro-pyrrol-2-one]	3		
Cc1ccc(C(=O)C2=C(O)C(=O)N(c3ccc(C)nn3)C2c2cccc(C(C)C)c2)cc1 (stereo not shown) [Example 29, 3-hydroxy-5-(3-isopropyl-phenyl)-4-(4-methyl-benzoyl)-1-(6-methyl-pyridazin-3-yl)-1,5-dihydro-pyrrol-2-one]	6		
Cc1ccc(N2C(=O)C(O)=C(C(=O)c3ccc(N(C)C)cc3)C2c2ccc(C(C)C)cc2)nn1 (stereo not shown) [Example 35, 4-(4-dimethylamino-benzoyl)-3-hydroxy-5-(4-isopropyl-phenyl)-1-(6-methyl-pyridazin-3-yl)-1,5-dihydro-pyrrol-2-one]	3		
Cc1ccc(C(=O)C2=C(O)C(=O)N(c3ccc(C)nn3)C2c2ccc(-c3ccccc3)cc2)cc1 (stereo not shown) [Example 42, 5-biphenyl-4-yl-3-hydroxy-4-(4-methyl-benzoyl)-1-(6-methyl-pyridazin-3-yl)-1,5-dihydro-pyrrol-2-one]	4		
Cc1ccc(N2C(=O)C(O)=C(C(=O)c3ccc(C(C)C)cc3)C2c2ccc(C(C)C)cc2)nc1 (stereo not shown) [Example 44, 3-hydroxy-4-(4-isopropyl-benzoyl)-5-(4-isopropyl-phenyl)-1-(5-methyl-pyridin-2-yl)-1,5-dihydro-pyrrol-2-one]	2		
Cc1ccc(N2C(=O)C(O)=C(C(=O)c3ccc(C(C)C)cc3)C2c2ccc(-c3ccccc3)cc2)nn1 (stereo not shown) [Example 45, 5-biphenyl-4-yl-3-hydroxy-4-(4-isopropyl-benzoyl)-1-(6-methyl-pyridazin-3-yl)-1,5-dihydro-pyrrol-2-one]	4		
Cc1ccc(N2C(=O)C(O)=C(C(=O)c3ccc(N(C)C)cc3)C2c2ccc(OC(F)(F)F)cc2)nn1 (stereo not shown) [Example 49, 4-(4-dimethylamino-benzoyl)-3-hydroxy-1-(6-methyl-pyridazin-3-yl)-5-(4-trifluoromethoxy-phenyl)-1,5-dihydro-pyrrol-2-one]	1		
Cc1ccc(N2C(=O)C(O)=C(C(=O)c3ccc(C(F)(F)F)cc3)C2c2ccc(C(F)(F)F)cc2)nn1 (stereo not shown) [Example 95, 3-hydroxy-1-(6-methyl-pyridazin-3-yl)-4-(4-trifluoromethyl-benzoyl)-5-(4-trifluoromethyl-phenyl)-1,5-dihydro-pyrrol-2-one]		< 10	
Cc1ccc(N2C(=O)C(O)=C(C(=O)c3ccc(OC(F)(F)F)cc3)C2c2ccc(C(C)C)cc2)cn1 (stereo not shown) [Example 97, 5-[3-hydroxy-5-(4-isopropyl-phenyl)-2-oxo-4-(4-trifluoromethoxy-benzoyl)-2,5-dihydro-pyrrol-1-yl]-2-methyl-pyridinium; chloride]			EC50 (read-out: EC50_3DS_NS5B, Table 2, titled Replicon assay results): < 10 µM
COc1ccc(C(=O)C2=C(O)C(=O)N(c3ccc(C)nn3)C2c2ccc(OC(C)C)cc2)cc1 (stereo not shown) [Example 100, 3-hydroxy-5-(4-isopropoxy-phenyl)-4-(4-methoxy-benzoyl)-1-(6-methyl-pyridazin-3-yl)-1,5-dihydro-pyrrol-2-one]		< 10	
Cc1ccc(N2C(=O)C(O)=C(C(=O)c3ccc(OC(C)C)cc3)C2c2ccc(OC(C)C)cc2)nn1 (stereo not shown) [Example 109, 3-hydroxy-4-(4-isopropoxy-benzoyl)-5-(4-isopropoxy-phenyl)-1-(6-methyl-pyridazin-3-yl)-1,5-dihydro-pyrrol-2-one]		< 10	
Cc1ccc(N2C(=O)C(O)=C(C(=O)c3ccc(C(C)C)cc3)C2c2ccc(CC(C)C)cc2)nn1 (stereo not shown) [Example 136, 3-hydroxy-5-(4-isobutyl-phenyl)-4-(4-isopropyl-benzoyl)-1-(6-methyl-pyridazin-3-yl)-1,5-dihydro-pyrrol-2-one]		< 10	
Cc1ccc(N2C(=O)C(O)=C(C(=O)c3ccc(C(C)C)cc3)C2c2ccc(Br)cc2)nn1 (stereo not shown) [Example 172, 5-(4-bromo-phenyl)-3-hydroxy-4-(4-isopropyl-benzoyl)-1-(6-methyl-pyridazin-3-yl)-1,5-dihydro-pyrrol-2-one]		< 1	
Cc1ccc(N2C(=O)C(O)=C(C(=O)c3ccc(C(C)C)cc3)C2c2ccc(SC(C)C)cc2)nn1 (stereo not shown) [Example 173, 3-hydroxy-4-(4-isopropyl-benzoyl)-5-(4-isopropylsulfanyl-phenyl)-1-(6-methyl-pyridazin-3-yl)-1,5-dihydro-pyrrol-2-one]		< 1	
Cc1ccc(N2C(=O)C(O)=C(C(=O)c3ccc(C#N)cc3)C2c2ccc(OC(F)(F)F)cc2)nn1 (stereo not shown) [Example 176, 4-[4-hydroxy-1-(6-methyl-pyridazin-3-yl)-5-oxo-2-(4-trifluoromethoxy-phenyl)-2,5-dihydro-1H-pyrrole-3-carbonyl]-benzonitrile]		< 10	
Cc1ccc(N2C(=O)C(O)=C(C(=O)c3ccc(N4CCCC4)cc3)C2c2ccc(OC(C)(F)F)cc2)nn1 (stereo not shown) [Example 183, 5-[4-(1,1-difluoro-ethoxy)-phenyl]-3-hydroxy-1-(6-methyl-pyridazin-3-yl)-4-(4-pyrrolidin-1-yl-benzoyl)-1,5-dihydro-pyrrol-2-one]		< 10	
Cc1ccc(N2C(=O)C(O)=C(C(=O)c3ccc(N4CCCC4)cc3)C2c2ccc(OC(F)(F)F)cc2)nn1 (stereo not shown) [Example 184, 3-hydroxy-1-(6-methyl-pyridazin-3-yl)-4-(4-pyrrolidin-1-yl-benzoyl)-5-(4-trifluoromethoxy-phenyl)-1,5-dihydro-pyrrol-2-one]		< 10	
Cc1ccc(N2C(=O)C(O)=C(C(=O)c3ccc(C(C)C)cc3)C2c2ccc(Oc3cc(C)on3)cc2)nn1 (stereo not shown) [Example 185, 3-hydroxy-4-(4-isopropyl-benzoyl)-5-[4-(5-methyl-isoxazol-3-yloxy)-phenyl]-1-(6-methyl-pyridazin-3-yl)-1,5-dihydro-pyrrol-2-one]		< 10	
Cc1ccc(N2C(=O)C(OC(=O)C(C)C)=C(C(=O)c3ccc(C(C)C)cc3)C2c2ccc(OC(F)(F)F)cc2)nn1 (stereo not shown) [Example 186, Isobutyric acid 4-(4-isopropyl-benzoyl)-1-(6-methyl-pyridazin-3-yl)-2-oxo-5-(4-trifluoromethoxy-phenyl)-2,5-dihydro-1H-pyrrol-3-yl ester]		< 1	
Cc1ccc(N2C(=O)C(O)=C(C(=O)c3ccc(C(C)C)cc3)C2c2ccc(C(C)(F)F)nc2)nn1 (stereo not shown) [Example 187, 5-[6-(1,1-difluoro-ethyl)-pyridin-3-yl]-3-hydroxy-4-(4-isopropyl-benzoyl)-1-(6-methyl-pyridazin-3-yl)-1,5-dihydro-pyrrol-2-one]		< 1	
Cc1ccc(N2C(=O)C(O)=C(C(=O)c3ccc(C(C)C)cc3)[C@@H]2c2ccc(C(F)(F)F)nc2)nn1 [Example 194, 3-hydroxy-4-(4-isopropyl-benzoyl)-1-(6-methyl-pyridazin-3-yl)-5(S)-(6-trifluoromethyl-pyridin-3-yl)-1,5-dihydro-pyrrol-2-one]		< 10	

Source: patent US20120128630A1, “1-(6 MEMBERS AZO-HETEROCYCLIC)-PYRROLIN-2-ONE COMPOUNDS AS INHIBITORS OF HEPATITIS C NS5B POLYMERASE, THE PHARAMACEUTICAL COMPOSITION THEREOF AND THEIR THERAPEUTIC USE” (priority 2009, published 2012)
